In test [1] the test system is spindle assembly checkpoint. The test can be described thus: SAC-Formation - Nocodazole-Induced Assay. The settings on record: Homo sapiens; HeLa cells, nocodazole 0.1 μg/ml, 24 h, phosphorylated histone H3 on serine 10. In kind it is cell-based. An excerpt:
The spindle assembly checkpoint assures the proper segregation of chromosomes during mitosis. Upon entry into mitosis, chromosomes begin to condensate which is accompanied by the phosphorylation of histone H3 on serine 10. Dephosphorylation of histone H3 on serine 10 begins in anaphase and ends at early telophase. Accordingly, phosphorylation of histone H3 on serine 10 can be utilized as a marker of cells in mitosis. Nocodazole is a microtubule destabilizing substance. Paclitaxel is a microtubule stabilizing compound. Thus, nocodazole as well as paclitaxel interfere with microtubule dynamics and mobilize the spindle assembly checkpoint. […] The mitotic breakthrough can be detected by the decrease of cells with phosphorylation of histone H3 on serine 10. This decline is used as a marker to determine the capability of compounds of the present invention to induce a mitotic breakthrough. The typical morphological alteration of nuclei with a prematurely completed mitosis after SAC-inhibition can be monitored via image analysis routines supporting those findings.
The nocodazole and paclitaxel variations were used to focus on compounds that are capable of inhibiting a SAC induced by both microtubule destabilization as well as microtubule stabilization. When SAC inducing agents and compounds are given simultaneously, inhibitors that effectively block the SAC during formation or abrogation are identified. When cells are incubated with a SAC inducing agent and the SAC interfering compound is given after a defined time, inhibitors are identified that effectively block SAC abrogation.
Cultivated cells of the human cervical tumor cell line HeLa (ATCC CCL-2) were plated at a density of 1000 cells/well in a 1536-well microtiter plate in 2 μl PAA Ham's F12 Medium supplemented with 1% (v/v) glutamine, 1% (v/v) penicillin, 1% (v/v) streptomycin and 10% (v/v) fetal calf serum. After incubation overnight at 37° C., 10 μl/well nocodazole at a final concentration of 0.1 μg/ml were added to cells. Test compounds solubilized in dimethyl sulfoxide (DMSO) were added at various concentrations (0 μM, as well as in the range of 0.005 μM-20 μM; the final concentration of the solvent DMSO was 0.5% (v/v)). Cells were incubated for 24 h at 37° C. in the presence of test compounds in combination with nocodazole. Thereafter, cells were fixed in 4% (v/v) paraformaldehyde in phosphate buffered saline (PBS) at 4° C. overnight then permeabilized in 0.1% (v/v) Triton X™ 100 in PBS at room temperature for 20 min and blocked in 0.5% (v/v) bovine serum albumin (BSA) in PBS at room temperature for 15 min. After washing with PBS, 5 μl/well antibody solution (anti-phospho-histone H3 clone 3H10, FITC; Millipore, Cat #16-222; 1:1000 dilution) was added to cells, which were incubated for 2 h at room temperature. Afterwards, cells were washed with PBS and 5 μl/well solution of HOECHST 33342 dye (5 μg/ml) was added to cells and cells were incubated 15 min at room temperature in the dark. Cells were washed twice with PBS then covered with PBS and stored at 4° C. until analysis. Images were acquired with a PERKIN ELMER OPERA™ High-Content Analysis reader. Images were analyzed with image analysis software MetaXpress™ from Molecular devices utilizing the Mitotic Index application module. In this assay both labels HOECHST 33342 and phosphorylated Histone H3 on serine 10 were measured. HOECHST 33342 labels the DNA and is used to count the cell number. The staining of phosphorylated Histone H3 on serine 10 determines the number of mitotic cells. […] Otherwise cells were arrested at G2/M phase of the cell cycle progression. The raw assay data were further analyzed by four-parametric hill equation using Genedata's Assay Analyzer and Condoseo software.

Test [2] concerns the target human Bub1 (Homo sapiens (Human), UniProt O43683). The test can be described thus: Bub1 kinase assay (TR-FRET). Particulars: 10 μM ATP; read-out: Bub1 avg (IC50 [mol/l]). In kind it is biochemical. The text has this: Bub1-inhibitory activity of compounds of the present invention was quantified employing the Bub1 TR-FRET assay as described in the following paragraphs.
N-terminally His6-tagged recombinant catalytic domain of human Bub1 (amino acids 704-1085), expressed in insect cells (Hi5) and purified by Ni-NTA affinity chromatography and subsequent size exclusion chromatography, was used as enzyme. As substrate for the kinase reaction the biotinylated peptide biotin-Ahx-VLLPKKSFAEPG (C-terminus in amid form) was used which can be purchased e.g. form the company Biosyntan (Berlin, Germany).
For the assay 50 nl of a 100 fold concentrated solution of the test compound in DMSO was pipetted into a black low volume 384 well microtiter plate (Greiner Bio-One, Frickenhausen, Germany), 2 μl of a solution of Bub1 in aqueous assay buffer [50 mM Tris/HCl pH 7.5, 10 mM magnesium chloride (MgCl2), 200 mM potassium chloride (KCl), 1.0 mM dithiothreitol (DTT), 0.1 mM sodium ortho-vanadate, 1% (v/v) glycerol, 0.01% (w/v) bovine serum albumine (BSA), 0.005% (v/v) Trition X-100 (Sigma), 1× Complete EDTA-free protease inhibitor mixture (Roche)] were added and the mixture was incubated for 15 min at 22° C. to allow pre-binding of the test compounds to the enzyme before the start of the kinase reaction. Then the kinase reaction was started by the addition of 3 μl of a solution of adenosine-tri-phosphate (ATP, 16.7 μM=>final conc. in the 5 μl assay volume is 10 μM) and substrate (1.67 μM=>final conc. in the 5 μl assay volume is 1 μM) in assay buffer and the resulting mixture was incubated for a reaction time of 60 min at 22° C. The concentration of Bub1 was adjusted depending of the activity of the enzyme lot and was chosen appropriate to have the assay in the linear range, typical concentrations were in the range of 200 ng/ml. The reaction was stopped by the addition of 5 μl of a solution of TR-FRET detection reagents (0.2 μM streptavidine-XL665 [Cisbio Bioassays, Codolet, France] and 1 nM anti-phosho-Serine antibody [Merck Millipore, cat. #35-001] and 0.4 nM LANCE EU-W1024 labeled anti-mouse IgG antibody [Perkin-Elmer, product no. AD0077, as an alternative a Terbium-cryptate-labeled anti-mouse IgG antibody from Cisbio Bioassays can be used]) in an aqueous EDTA-solution (50 mM EDTA, 0.2% (w/v) bovine serum albumin in 100 mM HEPES pH 7.5).
The resulting mixture was incubated 1 h at 22° C. to allow the formation of complex between the phosphorylated biotinylated peptide and the detection reagents. Subsequently the amount of phosphorylated substrate was evaluated by measurement of the resonance energy transfer from the Eu-chelate to the streptavidine-XL. Therefore, the fluorescence emissions at 620 nm and 665 nm after excitation at 350 nm was measured in a TR-FRET reader, e.g. a Rubystar or Pherastar (both from BMG Labtechnologies, Offenburg, Germany) or a Viewlux (Perkin-Elmer). The ratio of the emissions at 665 nm and at […] was taken as the measure for the amount of phosphorylated substrate. The data were normalised (enzyme reaction without inhibitor=0% inhibition, all other assay components but no enzyme=100% inhibition).
Background: In TR-FRET formats the signal depends on donor and acceptor labels being close together.

Sequence of human Bub1 (O43683 704-1085): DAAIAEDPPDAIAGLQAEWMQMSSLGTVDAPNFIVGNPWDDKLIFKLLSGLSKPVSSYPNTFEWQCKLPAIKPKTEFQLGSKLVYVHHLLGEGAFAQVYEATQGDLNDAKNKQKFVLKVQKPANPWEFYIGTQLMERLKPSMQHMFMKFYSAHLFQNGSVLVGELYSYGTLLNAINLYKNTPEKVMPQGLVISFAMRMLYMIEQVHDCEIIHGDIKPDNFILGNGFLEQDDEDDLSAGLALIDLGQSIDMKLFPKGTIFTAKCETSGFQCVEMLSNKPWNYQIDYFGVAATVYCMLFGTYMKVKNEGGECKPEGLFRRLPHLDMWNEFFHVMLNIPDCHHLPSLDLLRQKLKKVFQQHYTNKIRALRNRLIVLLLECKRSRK

For `CCc1ccccc1NC(=O)c1c(C)nsc1Nc1cnccn1` [Example 1, N-(2-Ethylphenyl)-3-methyl-5-(pyrazin-2-ylamino)-1,2-thiazole-4-carboxamide], the IC50 in test [1] was 1.8 µM; in test [2] it was greater than 20 µM. Turning to `CCc1ccccc1NC(=O)c1c(C)nsc1Nc1ccnc(C#N)n1` [Example 6, 5-[(2-Cyanopyrimidin-4-yl)amino]-N-(2-ethylphenyl)-3-methyl-1,2-thiazole-4-carboxamide], the IC50 was 0.68 µM in test [1] and greater than 20 µM in test [2]. The matching figures for `CCc1ccccc1NC(=O)c1c(C)nsc1Nc1ccc(C#N)cn1` [Example 7, 5-[(5-Cyanopyridin-2-yl)amino]-N-(2-ethylphenyl)-3-methyl-1,2-thiazole-4-carboxamide]: 0.83 µM and greater than 20 µM. Regarding `CCc1ccccc1NC(=O)c1c(C)nsc1Nc1ncccc1C#N` [Example 8, 5-[(3-Cyanopyridin-2-yl)amino]-N-(2-ethylphenyl)-3-methyl-1,2-thiazole-4-carboxamide], the IC50 is 4.1 µM in test [1] and greater than 20 µM in test [2]. As for `CCc1ccccc1NC(=O)c1c(C)nsc1Nc1cc(-n2ccnc2)ncn1` [Example 9, N-(2-Ethylphenyl)-5-{[6-(1H-imidazol-1-yl)pyrimidin-4-yl]amino}-3-methyl-1,2-thiazole-4-carboxamide], the IC50 in test [1] is 1.3 µM; in test [2] it was greater than 20 µM. The like results for `CCc1ccccc1NC(=O)c1c(C)nsc1Nc1ncnc2ccccc12` [Example 10, N-(2-Ethylphenyl)-3-methyl-5-(quinazolin-4-ylamino)-1,2-thiazole-4-carboxamide] were, in that order, 6.5 µM and greater than 20 µM. The like results for `CCc1ccccc1NC(=O)c1c(C)nsc1Nc1nc2ccccc2o1` [Example 11, 5-(1,3-Benzoxazol-2-ylamino)-N-(2-ethylphenyl)-3-methyl-1,2-thiazole-4-carboxamide] were, in that order, 1.8 µM and 3.8 µM.

In the case of `CCc1ccccc1NC(=O)c1c(C)nsc1Nc1ncnc2sccc12` [Example 12, N-(2-Ethylphenyl)-3-methyl-5-(thieno[2,3-d]pyrimidin-4-ylamino)-1,2-thiazole-4-carboxamide], the IC50 in test [1] is 2 µM; in test [2] it was greater than 20 µM. The matching figures for `CCc1ccccc1NC(=O)c1c(C)nsc1Nc1ncnc2ccsc12` [Example 13, N-(2-Ethylphenyl)-3-methyl-5-(thieno[3,2-d]pyrimidin-4-ylamino)-1,2-thiazole-4-carboxamide]: 0.59 µM and greater than 20 µM. The like results for `CCc1ccccc1NC(=O)c1c(C)nsc1Nc1nc2ccccc2s1` [Example 14, 5-(1,3-Benzothiazol-2-ylamino)-N-(2-ethylphenyl)-3-methyl-1,2-thiazole-4-carboxamide] were, in that order, 0.35 µM and 8.59 µM. The like results for `CCc1ccccc1NC(=O)c1c(C)nsc1Nc1cc(NC)ncn1` [Example 15, N-(2-Ethylphenyl)-3-methyl-5-{[6-(methylamino)pyrimidin-4-yl]amino}-1,2-thiazole-4-carboxamide] were, in that order, 16 µM and greater than 20 µM. For `CCc1ccccc1NC(=O)c1c(C)nsc1Nc1nccc(OC)n1` [Example 16, N-(2-Ethylphenyl)-5-[(4-methoxypyrimidin-2-yl)amino]-3-methyl-1,2-thiazole-4-carboxamide], the figures for the IC50 in test [1] and in test [2] were 9.8 µM and greater than 20 µM, respectively. Take `CCc1ccnc(Nc2snc(C)c2C(=O)Nc2ccccc2CC)n1` [Example 17, N-(2-Ethylphenyl)-5-[(4-ethylpyrimidin-2-yl)amino]-3-methyl-1,2-thiazole-4-carboxamide]: the IC50 in test [1] is 6 µM; in test [2] it was greater than 20 µM. The matching figures for `CCc1ccccc1NC(=O)c1c(C)nsc1Nc1cc(C(F)(F)F)ccn1` [Example 18, N-(2-Ethylphenyl)-3-methyl-5-{[4-(trifluoromethyl)pyridin-2-yl]amino}-1,2-thiazole-4-carboxamide]: 0.15 µM and greater than 20 µM. Take `CCc1ccccc1NC(=O)c1c(C)nsc1Nc1cnc2ccccc2n1` [Example 19, N-(2-Ethylphenyl)-3-methyl-5-(quinoxalin-2-ylamino)-1,2-thiazole-4-carboxamide]: the IC50 in test [1] is 0.051 µM; in test [2], greater than 20 µM. The matching figures for `CCc1ccccc1NC(=O)c1c(C)nsc1Nc1cnc2cc(F)ccc2n1` [Example 20, N-(2-Ethylphenyl)-5-[(6-fluoroquinoxalin-2-yl)amino]-3-methyl-1,2-thiazole-4-carboxamide]: 0.34 µM and greater than 20 µM. As to `CCc1ccccc1NC(=O)c1c(C)nsc1Nc1nc2ccccc2nc1C` [Example 21, N-(2-Ethylphenyl)-3-methyl-5-[(3-methylquinoxalin-2-yl)amino]-1,2-thiazole-4-carboxamide], the IC50 is 0.28 µM in test [1] and greater than 20 µM in test [2]. For the molecule `COc1ccc(NC(=O)c2c(C)nsc2Nc2ncccc2C#N)cn1` [Example 36, 5-[(3-Cyanopyridin-2-yl)amino]-N-(6-methoxypyridin-3-yl)-3-methyl-1,2-thiazole-4-carboxamide], in test [1], the IC50 was 1.6 µM. The same measure, in the same setting: the same measure for `Cc1nsc(Nc2cc(C#N)ccn2)c1C(=O)Nc1ccc(Oc2ccc(F)cc2F)nc1` [Example 114, 5-[(4-Cyanopyridin-2-yl)amino]-N-[6-(2,4-difluorophenoxy)pyridin-3-yl]-3-methyl-1,2-thiazole-4-carboxamide]: 0.031 µM.

The values are drawn from patent US9682995B2, “Amino-substituted isothiazoles” (BAYER PHARMA AKTIENGESELLSCHAFT, priority 2013, dated 2017).
